Data from patent US20170332691A1, “NUTRITIONAL COMPOSITIONS COMPRISING SN-1 (3) MONOACYLGLYCEROLS FOR USE IN THE TREATMENT OF MALABSORPTION OR MALDIGESTION IN INFANTS OR YOUNG CHILDREN” (NESTEC S.A., priority 2014, published 2017).

Assays:
[1] = lipid maldigestion or malabsorption rat model (XENICAL/Orlistat), EPA in red blood cells and tissues; assay type: in vivo; conditions: for level of EPA incorporated in red blood cells: rats fed with XENICAL, day 7 (FIG. 3)
Procedure: The concept was tested in a lipid maldigestion or malabsorption rat model. The maldigestion or malabsorption condition was obtained using XENICAL® (ORLISTAT, tetrahydrolipstatin), a pancreatic and gastric lipases inhibitor. Rats were fed during 21 days with long-chain polyunsaturated fatty acid (LC-PUFA) supplements containing mainly eicosapentaenoic (EPA) acid. Fish oil was used as a source of triacylglycerols, and different EPA glycerides were evaluated: […] XENICAL® (ORLISTAT) was given at a level sufficient to decrease lipid absorption by 40%. A group receiving fish oil without XENICAL® (ORLISTAT) was used as a positive control. At different time intervals (D3, D7, […]), the fatty acid profiles of red blood cells and plasma lipids were determined. At the end of the experiment, the fatty acid profiles of different tissues were determined. The main objective was to follow the level of EPA in red blood cells and plasma lipids. The main comparison evaluated was the difference in EPA level between the group receiving EPA glycerides such as EPA-containing sn-1(3) MAG, in combination with XENICAL® (ORLISTAT) and the positive control group (fish oil+XENICAL® (ORLISTAT)).

[2] = clinical study: sn-1(3) MAG vs fish oil (TAG) delivering EPA under XENICAL-induced lipid maldigestion; assay type: in vivo, human
Procedure: This clinical study compared the efficacy of sn-1(3) MAG and fish oil (TAG) in delivering EPA in humans under lipid maldigestion conditions induced by XENICAL® (ORLISTAT). The comparison was tested in volunteers treated with XENICAL® to induce lipid maldigestion or not treated with XENICAL® (ORLISTAT). The primary objective was to assess accretion of EPA in erythrocytes over 21 days when consumed as fish oil (TAG) or sn-1(3) MAG. The secondary objectives were to assess accretion of EPA in plasma over 21 days and also to assess the pharmacokinetics of EPA after an acute dose either in the form of sn-1(3) MAG or TAG (AUC in chylomicrons over 10 hours postprandial). See FIG. 4 that describes the clinical study timeline.

SMILES	EPA incorporation in red blood cells ([1]; rats fed fish oil with XENICAL vs fish oil without XENICAL, day 7)	carrier for EPA (overall conclusion of the clinical trial) ([2]; human subjects treated with XENICAL, vs fish oil (TAG))	accretion of EPA in erythrocytes after 21 days (chronic effect) ([2]; humans, with XENICAL, in comparison to fish oil and XENICAL, p=0.0001 (FIG. 6))	accretion of EPA in plasma after 21 days (chronic effect) ([2]; humans, with XENICAL, relative to fish oil and XENICAL, p=0.0003 (FIG. 7))	level of EPA incorporated in red blood cells ([1]; compared with fish oil + XENICAL, all P values lower than 0.05)	level of EPA incorporated in red blood cells ([1]; compared with fish oil group without XENICAL)	incorporation of LC-PUFAs in tissue ([1]; rats with XENICAL, comparing groups A, B and C)
CCCCCCCCCCC[C@@H](C[C@@H]1OC(=O)[C@H]1CCCCCC)OC(=O)[C@H](CC(C)C)NC=O [XENICAL® (ORLISTAT), tetrahydrolipstatin, reference compound]	decreases EPA incorporation in red blood cells	–	–	–	–	–	–
CC/C=C\C/C=C\C/C=C\C/C=C\C/C=C\CCCC(=O)OCC(O)CO (stereo not shown) [Sn-1(3)-MAG-EPA, sn-1(3)-monoeicosapentaenoylglycerol]	–	better carrier for EPA than fish oil (TAG)	statistically significant	statistically significant	statistically higher	even higher than the fish oil group	improved
